# From patent publication US11214803B2, “Modulators of YAP1 expression” (Ionis Pharmaceuticals, Inc., priority 2019, dated 2022)
# Strand notation (5' to 3'): a small letter for the sugar, then the base; units joined by * are phosphorothioate-linked, units joined directly phosphodiester-linked; [ ] holds rarer units or linkages, { } end groups; capitals alone tell only the bases. k = constrained ethyl (cEt); [5mC] = 5-methylcytosine; d = 2'-deoxy (DNA)
# Test system: Yap1 mRNA
# Experiment: Antisense inhibition of human Yap1 in A-431 cells by cEt gapmers, single dose (Example 2, RTS4814)
# Assay type: cell-based
# Settings: A-431 cells, 5,000 cells per well, free uptake, 2,000 nM modified oligonucleotide, approx. 48 hours, RTS4814, normalized to RIBOGREEN; Table 4; asterisk (*) = targets amplicon region of primer probe set
# Method in brief: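 Free uptake, 2,000 nM, ~48 h, A-431 at 5,000 cells/well. Readout: RT-qPCR (RTS4814), RIBOGREEN-normalized, % UTC. 16-mer 3-10-3 cEt gapmers, full PS backbone, all C as 5-methylcytosine.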
row,Substance,YAP1 (% UTC)
1,716478 (kT*kA*kT*dT*dT*dT*dA*dA*dT*d[5mC]*dT*dA*dG*kT*k[5mC]*kG; antisense) [Compound 716478],46 % UTC
2,716499 (kT*kT*kT*dT*dG*d[5mC]*d[5mC]*d[5mC]*dT*d[5mC]*d[5mC]*dT*d[5mC]*k[5mC]*kA*kA; antisense) [Compound 716499],102 % UTC
3,716517 (antisense kT*kT*k[5mC]*dA*d[5mC]*dA*dA*d[5mC]*d[5mC]*d[5mC]*d[5mC]*d[5mC]*d[5mC]*k[5mC]*k[5mC]*k[5mC]) [Compound 716517],53 % UTC
4,716361 (kG*kG*kT*dT*dG*dA*dG*dG*d[5mC]*dG*dG*d[5mC]*dG*kG*k[5mC]*kT; antisense) [Compound 716361],75 % UTC

# Same assay, conditions: Table 6; A-431 cells, 5,000 cells per well, free uptake, 2,000 nM modified oligonucleotide, approx. 48 hours; RTS4814; normalized to RIBOGREEN; Yap1 mRNA relative to untreated control cells
row,Substance,YAP1 (% UTC)
1,716561 (kA*kA*kG*dG*dT*dA*dT*dT*dA*d[5mC]*dA*dT*dA*kA*kG*kA; antisense) [Compound 716561],58 % UTC
2,716366 (k[5mC]*kA*kG*dG*dT*d[5mC]*dG*dG*dT*d[5mC]*dT*d[5mC]*d[5mC]*kG*kA*kG; antisense) [Compound 716366],95 % UTC
3,716390 (kT*k[5mC]*kT*d[5mC]*dT*dG*dG*dT*dT*d[5mC]*dA*dT*dG*kG*k[5mC]*kA; antisense) [Compound 716390],66 % UTC
4,716357 (k[5mC]*kG*k[5mC]*d[5mC]*d[5mC]*d[5mC]*dG*dG*d[5mC]*dT*d[5mC]*d[5mC]*dA*k[5mC]*kG*kG; antisense) [Compound 716357],127 % UTC
5,716453 (kG*kG*kT*dA*dA*dA*dA*dA*dA*dA*dA*d[5mC]*d[5mC]*kA*kG*kG; antisense) [Compound 716453],87 % UTC

# Same assay, conditions: Table 7 (gapmers targeting SEQ ID NO: 3 and 4); A-431 cells, free uptake, 2,000 nM, approximately 48 hours, RTS4814
row,Substance,YAP1 (% UTC)
1,716571 (kG*k[5mC]*kT*dG*dA*dA*dG*d[5mC]*d[5mC]*dG*dA*dG*dT*kT*k[5mC]*kA) [Compound 716571],91 % UTC

# Same assay, conditions: Table 18; A-431 cells, 5,000 cells per well, free uptake, 2,000 nM modified oligonucleotide, approx. 48 hours; RTS4814; normalized to RIBOGREEN; Yap1 mRNA as percent of untreated control
row,Substance,YAP1 (% UTC)
1,1076420 (k[5mC]*k[5mC]*kA*dT*dA*dT*dA*dA*dT*dA*dA*d[5mC]*d[5mC]*k[5mC]*kA*kT; antisense) [Compound 1076420],26 % UTC
2,1076132 (k[5mC]*kA*kT*d[5mC]*dA*dA*dT*dA*d[5mC]*dT*dG*dA*d[5mC]*kA*kT*k[5mC]; antisense) [Compound 1076132],28 % UTC
3,1074532 (antisense kG*kA*kA*d[5mC]*dA*d[5mC]*dT*dA*dA*dA*d[5mC]*dT*dA*k[5mC]*kT*kT) [Compound 1074532],59 % UTC

# Same assay, conditions: Table 19; A-431 cells, 5,000 cells per well, free uptake, 2,000 nM modified oligonucleotide, approx. 48 hours; RTS4814; normalized to RIBOGREEN; Yap1 mRNA as percent of untreated control
row,Substance,YAP1 (% UTC)
1,1074501 (kA*k[5mC]*kT*dA*d[5mC]*dA*dA*dT*dA*dA*d[5mC]*d[5mC]*dA*kT*k[5mC]*k[5mC]; antisense) [Compound 1074501],9 % UTC
2,1075461 (antisense k[5mC]*kT*kA*dA*dA*dT*dA*dA*d[5mC]*d[5mC]*dA*dA*dG*kG*kA*kT) [Compound 1075461],64 % UTC
3,1076133 (k[5mC]*kA*kT*dA*d[5mC]*dT*dA*dA*dT*dT*dT*dG*dG*kT*kA*kA; antisense) [Compound 1076133],60 % UTC
4,1074629 (antisense kG*kA*kG*dA*dT*dT*dT*dT*dA*dT*dG*d[5mC]*d[5mC]*kT*kG*kT) [Compound 1074629],3 % UTC

# Same assay, conditions: Table 21; Yap1 mRNA, percent of untreated control; 3-10-3 cEt gapmers targeting SEQ ID NO.: 1 and 2
row,Substance,YAP1 (% UTC)
1,1075111 (antisense kT*kA*kG*dG*dA*dA*dT*dA*dT*dG*dG*dG*dT*kA*kG*kT) [Compound 1075111],5 % UTC
2,1075559 (kG*kA*kT*dA*dT*dT*dA*dA*dG*dG*dT*dG*dG*k[5mC]*kT*kT; antisense) [Compound 1075559],24 % UTC

# Same assay, conditions: Table 22; Yap1 mRNA as percent of untreated control; 3-10-3 cEt gapmers; single dose
row,Substance,YAP1 (% UTC)
1,1074312 (antisense kA*kT*kA*dT*dT*d[5mC]*d[5mC]*dG*d[5mC]*dA*dT*dT*dG*k[5mC]*k[5mC]*kT) [Compound 1074312],18 % UTC

# Same assay, conditions: Table 23; Yap1 mRNA as percent of untreated control; 3-10-3 cEt gapmers; single dose
row,Substance,YAP1 (% UTC)
1,1075401 (antisense k[5mC]*kG*kA*dT*dT*dA*dA*dA*dA*d[5mC]*dA*d[5mC]*dT*kG*kG*kT) [Compound 1075401],3 % UTC
2,1076521 (antisense kA*k[5mC]*kT*dA*dA*dA*dG*dG*dA*dG*dT*d[5mC]*dA*kT*kG*kA) [Compound 1076521],67 % UTC
3,1076265 (kT*kA*kT*dT*dA*d[5mC]*d[5mC]*d[5mC]*dA*dA*dT*dA*dA*k[5mC]*k[5mC]*kA; antisense) [Compound 1076265],9 % UTC
4,1075433 (antisense kT*kT*kA*dA*d[5mC]*dT*dA*dA*d[5mC]*dT*dA*dA*dA*k[5mC]*kT*kG) [Compound 1075433],124 % UTC
5,1075305 (kA*kA*kA*d[5mC]*dG*dA*dA*dA*d[5mC]*dA*d[5mC]*dG*dG*kG*kT*kA; antisense) [Compound 1075305],66 % UTC
6,1074889 (antisense kA*kG*kT*dT*dT*dA*dG*d[5mC]*d[5mC]*dT*dG*dA*dA*kG*k[5mC]*kA) [Compound 1074889],42 % UTC

# Same assay, conditions: Table 24; Yap1 mRNA as percent of untreated control; 3-10-3 cEt gapmers targeting SEQ ID NO.: 1, and 2
row,Substance,YAP1 (% UTC)
1,1074922 (antisense k[5mC]*kT*kT*dT*d[5mC]*d[5mC]*dA*d[5mC]*dT*d[5mC]*dA*dA*dG*kT*kT*kA) [Compound 1074922],87 % UTC
2,1074250 (antisense k[5mC]*kT*kG*dA*dT*d[5mC]*dG*dA*dT*dG*dT*dG*dA*kT*kT*kT) [Compound 1074250],6 % UTC
3,1076074 (k[5mC]*kT*kA*dA*dT*dT*dA*dG*d[5mC]*dT*dT*dT*d[5mC]*kA*kG*k[5mC]; antisense) [Compound 1076074],92 % UTC
4,1074698 (antisense kT*kA*kT*d[5mC]*dA*dA*dG*dG*dT*d[5mC]*d[5mC]*d[5mC]*d[5mC]*k[5mC]*kT*kA) [Compound 1074698],78 % UTC
5,1074730 (antisense kT*kA*kT*d[5mC]*dA*d[5mC]*dA*dG*dT*dA*d[5mC]*dT*dG*k[5mC]*kT*kA) [Compound 1074730],46 % UTC
6,1074602 (antisense kT*k[5mC]*k[5mC]*dA*dG*d[5mC]*dT*dA*dA*d[5mC]*dT*d[5mC]*dA*kA*kA*kA) [Compound 1074602],24 % UTC

# Same assay, conditions: Table 25; Yap1 mRNA as percent of untreated control; 3-10-3 cEt gapmers targeting SEQ ID NO.: 1, and 2
row,Substance,YAP1 (% UTC)
1,1074347 (antisense kG*kT*kT*dA*dA*dG*dG*dA*dA*dA*dG*dG*dA*kT*k[5mC]*kT) [Compound 1074347],34 % UTC
2,1074699 (antisense k[5mC]*kT*kA*dT*d[5mC]*dA*dA*dG*dG*dT*d[5mC]*d[5mC]*d[5mC]*k[5mC]*k[5mC]*kT) [Compound 1074699],27 % UTC
3,1076235 (kT*k[5mC]*kA*dA*dA*dA*dT*dA*dA*dT*d[5mC]*dA*dG*k[5mC]*k[5mC]*k[5mC]; antisense) [Compound 1076235],34 % UTC

# Same assay, conditions: Table 32; Yap1 mRNA, percent of untreated control; 3-10-3 cEt gapmers targeting SEQ ID NO.: 1, and 2
row,Substance,YAP1 (% UTC)
1,1074898 (antisense kA*kA*k[5mC]*dT*dT*dT*dT*dG*dG*dG*d[5mC]*dA*dA*kA*kG*kT) [compound 1074898],101 % UTC

# Same assay, conditions: Table 33; Yap1 mRNA, percent of untreated control; 3-10-3 cEt gapmers targeting SEQ ID NO.: 1, and 2
row,Substance,YAP1 (% UTC)
1,1075987 (kG*kA*kA*dG*dA*dA*dT*dA*dT*d[5mC]*dG*dA*dA*kA*kA*kG; antisense) [compound 1075987],13 % UTC
2,1074387 (k[5mC]*k[5mC]*kA*dG*dG*dA*dA*dT*dG*dG*d[5mC]*dT*dT*k[5mC]*kA*kA; antisense) [compound 1074387],32 % UTC
3,1074931 (antisense kG*kA*kG*dA*d[5mC]*dT*dA*dT*dA*d[5mC]*dA*dA*d[5mC]*kA*kG*kG) [compound 1074931],35 % UTC
4,1074483 (k[5mC]*kA*k[5mC]*dT*dA*dA*dT*dA*dT*dG*dG*dT*d[5mC]*kA*kT*kT; antisense) [compound 1074483],15 % UTC
5,1074323 (antisense k[5mC]*kA*kG*dG*dG*d[5mC]*dT*dA*dA*d[5mC]*dT*d[5mC]*d[5mC]*kT*kG*kA) [compound 1074323],116 % UTC

# Same assay, conditions: Yap1 mRNA as percent of untreated control; A-431 cells; 3-10-3 cEt gapmers targeting SEQ ID NO.: 1, and 2; Table 30
row,Substance,YAP1 (% UTC)
1,1074704 (antisense k[5mC]*kA*k[5mC]*dG*dG*dT*dG*dT*dA*dA*dG*dA*d[5mC]*kA*kA*kG) [compound 1074704],16 % UTC
2,1074960 (antisense k[5mC]*kT*kT*dA*dA*d[5mC]*d[5mC]*d[5mC]*dG*dG*dG*dT*dT*kT*kT*kT) [compound 1074960],81 % UTC
